Measured values reported in paper PMC11823630, “In vitro potentiation of tetracyclines in Pseudomonas aeruginosa by RW01, a new cyclic peptide” (Antimicrobial Agents and Chemotherapy, 2024).
Converted amounts (≈) assume the structure as drawn.

Experiments:
P. aeruginosa 125A = test: MIC, CLSI broth microdilution in BD Phoenix AST Broth; assay type: cell-based, Pseudomonas aeruginosa; conditions: strain 125A; for MIC: Pseudomonas aeruginosa, agent alone, 37°C, 18–22 h, three biological replicates
Method: (§1) MIC for RW01 was also tested.
(§2) FIC of RW01 (FICRW01)=MIC of RW01 in combination/MIC of RW01 alone,FIC of antibiotic (FICATB)=MIC of ATB in combination/MIC of ATB alone,FICI=FICRW01 +FICATB.
(§3) FICI was interpreted as follows: synergistic effect if FICI is ≤0.5; additive effect if 0.5 < FICI ≤ 1.0; indifferent effect if 1.0 < FICI ≤ 2.0; and finally, antagonistic effect if FICI is >2.0. The average FICI considering the antibiotic MIC (no growth in any of the replicates) at different concentrations of RW01 was calculated ([28]).

P. aeruginosa 125B = test: as above; assay type: cell-based, Pseudomonas aeruginosa; conditions: strain 125B; for MIC: Pseudomonas aeruginosa, agent alone, 37°C, 18–22 h, three biological replicates
Method: as §1, §2, §3

P. aeruginosa 41A = test: as above; assay type: cell-based, Pseudomonas aeruginosa; conditions: Pseudomonas aeruginosa; strain 41A; agent alone; 37°C, 18–22 h; three biological replicates
Method: as §1, §2, §3

P. aeruginosa 41B = test: as above; assay type: cell-based, Pseudomonas aeruginosa; conditions: Pseudomonas aeruginosa; strain 41B; agent alone; 37°C, 18–22 h; three biological replicates
Method: as §1, §2, §3

P. aeruginosa PAO1 = test: as above; assay type: cell-based, Pseudomonas aeruginosa; conditions: Pseudomonas aeruginosa, PAO1, strain PAO1; agent alone; 37°C, 18–22 h; three biological replicates; read-out: MIC
Method: as §1, §2, §3

P. aeruginosa PAOUW = test: as above; assay type: cell-based, Pseudomonas aeruginosa; conditions: Pseudomonas aeruginosa, strain PAOUW; agent alone; 37°C, 18–22 h; three biological replicates; read-out: MIC
Method: as §1, §2, §3

P. aeruginosa PAOUW∆oprF = test: as above; assay type: cell-based, Pseudomonas aeruginosa; conditions: Pseudomonas aeruginosa, strain PAOUWΔoprF; agent alone; 37°C, 18–22 h; three biological replicates
Method: as §1, §2, §3

P. aeruginosa PAOΔmexR = test: as above; assay type: cell-based, Pseudomonas aeruginosa; conditions: for MIC: Pseudomonas aeruginosa
Method: as §1, §2, §3

P. aeruginosa PAOΔmexZ = test: as above; assay type: cell-based, Pseudomonas aeruginosa; conditions: Pseudomonas aeruginosa, strain PAOΔmexZ; agent alone; 37°C, 18–22 h; three biological replicates
Method: as §1, §2, §3

P. aeruginosa PAOΔoprM = test: as above; assay type: cell-based, Pseudomonas aeruginosa; conditions: Pseudomonas aeruginosa
Method: as §1, §2, §3

P. aeruginosa PAO1, WT = test: MIC, Sensititre custom plate; assay type: cell-based; conditions: Pseudomonas aeruginosa, PAO1, read-out: MIC, Sensititre
Method: (§4) Selection of resistant mutants was performed for minocycline with and without RW01 in three independent replicates for wild-type P. aeruginosa reference strain PAO1. Tubes containing Mueller-Hinton broth (MHB) were inoculated and incubated for 24 h at 37°C. Afterward, 1/100 dilution of each tube was incubated at 37°C in MHB to late-exponential growth phase, measured by spectrophotometry at OD600. […] A control plate without antibiotic was included as inoculum control. After overnight incubation, colony counting of each treatment was performed to analyze the generation of resistant population. The mutant prevention concentration (MPC) was defined as the lowest concentration of antibiotic yielding no growth of resistant mutants. Selected mutants were checked for susceptibility profiles by using a Sensititre custom plate (Thermo Fisher Scientific, Massachusetts, USA) for Gram-negative bacteria, following the manufacturer’s instructions.

[1] = system: PAO1 mutant MIN16_1, nalD(T43P); test: MIC, Sensititre custom plate; assay type: cell-based; conditions: Pseudomonas aeruginosa, PAO1, read-out: MIC, Sensititre
Method: as §4

[2] = system: PAO1 mutant MIN16_2, nalC(aa9∆4), pilQ(nt46∆1); test: MIC, Sensititre custom plate; assay type: cell-based; conditions: Pseudomonas aeruginosa, PAO1, read-out: MIC, Sensititre
Method: as §4

[3] = system: PAO1 mutant MIN16_3, nfxB(nt79∆14), pilB(N349K); test: MIC, Sensititre custom plate; assay type: cell-based; conditions: Pseudomonas aeruginosa, PAO1, read-out: MIC, Sensititre
Method: as §4

[4] = system: PAO1 mutant MIN16_4, nalC(T50P), pilM(Q62X); test: MIC, Sensititre custom plate; assay type: cell-based; conditions: Pseudomonas aeruginosa, PAO1, read-out: MIC, Sensititre
Method: as §4

[5] = system: PAO1 mutant MIN1_RW01_1, pmrB(Y98N); test: MIC, Sensititre custom plate; assay type: cell-based; conditions: Pseudomonas aeruginosa, PAO1, read-out: MIC, Sensititre
Method: as §4

[6] = system: PAO1 mutant MIN1_RW01_2, mexR(G58E), pilB(G326D), hutC(Y181X); test: MIC, Sensititre custom plate; assay type: cell-based; conditions: Pseudomonas aeruginosa, PAO1, read-out: MIC, Sensititre
Method: as §4

[7] = system: PAO1 mutant MIN1_RW01_3, pmrB(V215L); test: MIC, Sensititre custom plate; assay type: cell-based; conditions: Pseudomonas aeruginosa, PAO1, read-out: MIC, Sensititre
Method: as §4

[8] = system: PAO1 mutant MIN2_RW01_1, pmrB(V215L); test: MIC, Sensititre custom plate; assay type: cell-based; conditions: Pseudomonas aeruginosa, PAO1, read-out: MIC, Sensititre
Method: as §4

[9] = system: PAO1 mutant MIN2_RW01_2, pmrB(M292T); test: MIC, Sensititre custom plate; assay type: cell-based; conditions: Pseudomonas aeruginosa, PAO1, read-out: MIC, Sensititre
Method: as §4

[10] = system: PAO1 mutant MIN2_RW01_3, parS(V152A); test: MIC, Sensititre custom plate; assay type: cell-based; conditions: Pseudomonas aeruginosa, PAO1, read-out: MIC, Sensititre
Method: as §4

[11] = system: PAO1 mutant MIN32_1, mexR(R63H), pilB(N349K), PA0646(V316G); test: MIC, Sensititre custom plate; assay type: cell-based; conditions: Pseudomonas aeruginosa, PAO1, read-out: MIC, Sensititre
Method: as §4

[12] = system: PAO1 mutant MIN4_RW01_1, pmrB(R429H); test: MIC, Sensititre custom plate; assay type: cell-based; conditions: Pseudomonas aeruginosa, PAO1, read-out: MIC, Sensititre
Method: as §4

[13] = system: PAO1 mutant MIN4_RW01_3, pmrB(M292T); test: MIC, Sensititre custom plate; assay type: cell-based; conditions: Pseudomonas aeruginosa, PAO1, read-out: MIC, Sensititre
Method: as §4

[14] = system: PAO1 mutant MIN4_RW01_4, pmrB(Y98N); test: MIC, Sensititre custom plate; assay type: cell-based; conditions: Pseudomonas aeruginosa, PAO1, read-out: MIC, Sensititre
Method: as §4

[15] = system: PAO1 mutant MIN8_3, pilZ(nt18InsT); test: MIC, Sensititre custom plate; assay type: cell-based; conditions: Pseudomonas aeruginosa, PAO1, read-out: MIC, Sensititre
Method: as §4

[16] = system: PAO1 mutant MIN8_4, pilZ(nt18InsT); test: MIC, Sensititre custom plate; assay type: cell-based; conditions: Pseudomonas aeruginosa, PAO1, read-out: MIC, Sensititre
Method: as §4

[17] = system: PAO1 mutant MIN4_RW01_2, pmrB(F124S); test: microbe, parasite or virus in culture; assay type: cell-based; conditions: Pseudomonas aeruginosa, PAO1, read-out: MIC, Sensititre
Method: as §4

[18] = system: PAO1 mutant MIN2_RW01_4, pmrB(M292T); test: MIC, Sensititre custom plate; assay type: cell-based; conditions: Pseudomonas aeruginosa, PAO1, read-out: MIC, Sensititre
Method: as §4

[19] = system: PAO1 mutant MIN8_1, nalD(R3C), pilM(Q62X); test: MIC, Sensititre custom plate; assay type: cell-based; conditions: Pseudomonas aeruginosa, PAO1, read-out: MIC, Sensititre
Method: as §4

[20] = system: PAO1 mutant MIN8_2, pilZ(nt18InsT); test: MIC, Sensititre custom plate; assay type: cell-based; conditions: Pseudomonas aeruginosa, PAO1, read-out: MIC, Sensititre
Method: as §4

[21] = antibiotic MIC alone vs with RW01 100 mg/L

Row | Compound | MIC (P. aeruginosa 125A) [µg/mL] | MIC (P. aeruginosa 125B) [µg/mL] | MIC (P. aeruginosa 41A) [µg/mL] | MIC (P. aeruginosa 41B) [µg/mL] | MIC (P. aeruginosa PAO1) [µg/mL] | MIC (P. aeruginosa PAOUW) [µg/mL] | MIC (P. aeruginosa PAOUW∆oprF) [µg/mL] | MIC (P. aeruginosa PAOΔmexR) [µg/mL] | MIC (P. aeruginosa PAOΔmexZ) [µg/mL] | MIC (P. aeruginosa PAOΔoprM) [µg/mL] | MIC [3] [µg/mL] | MIC [4] [µg/mL] | MIC [6] [µg/mL] | MIC [10] [µg/mL] | MIC [11] [µg/mL] | MIC [12] [µg/mL] | MIC [15] [µg/mL] | MIC [16] [µg/mL] | also measured
1 | C[C@H]1[C@H](NC(=O)/C(=N\OC(C)(C)C(=O)O)c2csc(N)n2)C(=O)N1S(=O)(=O)O [Aztreonam, aztreonam] | 8 | 8 | 8 | 8 | 8 | 2 | 8 | 4 | 8 | 0.5 | 2 to 4 (≈ 4.59 to 9.19 µM) | 16 (≈ 36.7 µM) | 16 (≈ 36.7 µM) | 4 (≈ 9.19 µM) | 16 (≈ 36.7 µM) | 16 (≈ 36.7 µM) | 16 (≈ 36.7 µM) | 16 (≈ 36.7 µM) | MIC (P. aeruginosa PAO1, WT): 2 to 4 µg/mL (≈ 4.59 to 9.19 µM); MIC [1]: 16 µg/mL (≈ 36.7 µM); MIC [2]: 8 to 16 µg/mL (≈ 18.4 to 36.7 µM); MIC [5]: ≤ 2 µg/mL; MIC [7]: ≤ 2 µg/mL; MIC [8]: 4 to 8 µg/mL (≈ 9.19 to 18.4 µM); MIC [9]: 4 µg/mL (≈ 9.19 µM); MIC [13]: ≤ 2 µg/mL; MIC [14]: ≤ 2 µg/mL; MIC [17]: ≤ 2 µg/mL
2 | O=C(O)c1cn(C2CC2)c2cc(N3CCNCC3)c(F)cc2c1=O [CIP, ciprofloxacin] |  |  |  |  |  |  |  |  |  |  | 4 (≈ 12.1 µM) | 0.5 (≈ 1.51 µM) | 0.5 (≈ 1.51 µM) | 0.5 (≈ 1.51 µM) | 0.5 (≈ 1.51 µM) | 0.5 (≈ 1.51 µM) | 0.5 (≈ 1.51 µM) | 0.5 (≈ 1.51 µM) | MIC [18]: 0.5 to 1 µg/mL (≈ 1.51 to 3.02 µM)
3 | CO/N=C(\C(=O)N[C@@H]1C(=O)N2C(C(=O)[O-])=C(C[N+]3(C)CCCC3)CS[C@H]12)c1csc(N)n1 [Cefepime, cefepime] | 4 | 4 | 8 | 8 | 2 | 4 | 0.5 |  | 2 | 1 | 4 (≈ 8.32 µM) | 4 (≈ 8.32 µM) | 4 (≈ 8.32 µM) | 4 (≈ 8.32 µM) | 4 (≈ 8.32 µM) | 4 to 8 (≈ 8.32 to 16.6 µM) | 4 (≈ 8.32 µM) | 4 (≈ 8.32 µM) | Antibiotic MIC + RW01 100 mg/L (P. aeruginosa PAOΔmexR; strain PAOΔmexR, MIC of the antibiotic with fixed 100 mg/L RW01): 0.5 µg/mL; Potentiation (fold) (P. aeruginosa PAOΔmexR; strain PAOΔmexR, antibiotic MIC alone vs with RW01 100 mg/L): ≥ 8 fold; MIC (P. aeruginosa PAO1, WT): ≤ 1 µg/mL; MIC [1]: 4 µg/mL (≈ 8.32 µM); MIC [2]: 4 µg/mL (≈ 8.32 µM); MIC [5]: ≤ 1 µg/mL; MIC [7]: ≤ 1 µg/mL; MIC [9]: 4 µg/mL (≈ 8.32 µM); MIC [18]: 4 µg/mL (≈ 8.32 µM); MIC [13]: ≤ 1 µg/mL; MIC [14]: ≤ 1 µg/mL; MIC [19]: 4 µg/mL (≈ 8.32 µM); MIC [20]: 4 µg/mL (≈ 8.32 µM); MIC [17]: ≤ 1 µg/mL
4 | O=C(N[C@H](CO)[C@H](O)c1ccc([N+](=O)[O-])cc1)C(Cl)Cl [Chloramphenicol, chloramphenicol] | 128 | 64 | 128 | 128 | 32 | > 512 | 32 | 32 | 32 | 4 |  |  |  |  |  |  |  |  | Potentiation (fold) (P. aeruginosa 125A; [21]): ≥ 8 fold; Potentiation (fold) (P. aeruginosa 125B; [21]): ≥ 8 fold
5 | C[C@H]1COc2c(N3CCN(C)CC3)c(F)cc3c(=O)c(C(=O)O)cn1c23 [Levofloxacin, levofloxacin] | 0.5 | 0.5 | 2 | 1 | 0.5 | 4 | 0.5 | 0.5 | 0.5 | 0.125 |  |  |  |  |  |  |  |  | 
6 | CCN[C@@H]1C[C@H](N)[C@@H](O[C@H]2OC(CN)=CC[C@H]2N)[C@H](O)[C@H]1O[C@H]1OC[C@](C)(O)[C@H](NC)[C@H]1O [Netilmicin, netilmicin] | 8 | 8 | 8 | 8 | 8 | 2 | 8 | 8 | 8 | 1 |  |  |  |  |  |  |  |  | 
7 | CCn1cc(C(=O)O)c(=O)c2cc(F)c(N3CCNCC3)cc21 [Norfloxacin, norfloxacin] | 1 | 1 | 2 | 4 | 0.5 | 4 | 1 | 1 | 1 | 0.25 |  |  |  |  |  |  |  |  | 
